Read-outs that look alike come from different tables or passages of the source.
Experiment: Tissue concentrations of Formula I and its metabolites in Göttingen pigs after a single oral or intravenous dose (LC-MS/MS)
Type: in vivo
Conditions: for Exposure in the lung and spleen, fold lower than liver and kidneys: after PO dosing with Formula I; for concentration at 2 h / concentration at 3 h / concentration at 12 h / concentration at 24 h: both sexes, Göttingen, pig (minipig)
Description: Tissue samples were collected at 3, 12, and 24 hours post-dose (hpd) for the oral dose and 2 and 12 hpd for the intravenous dose, snap-frozen in liquid nitrogen, and stored at −60 to −90° C. until shipment on dry ice for analysis by LC-MS/MS.
Animals were weighed the day prior to dosing to determine the dosing volume.
The compound of Formula I was dissolved in a PEG 400/DI water (60%/40% v/v) vehicle for oral dosing. For IV dosing the compound of Formula I was dissolved in a PEG 400/Cremophor RH 40/Saline (40%/10%/50% v/v) vehicle and passed through a sterile filter. […] Animals were euthanized by euthanasia solution administration under sedation, if necessary (e.g., acepromazine and or/Telazol®), followed by a Testing Facility SOP approved method to ensure death (e.g., exsanguination). Tissues were collected from two animals per sex per timepoint. Tissue samples, including the brain, heart, kidney, liver, lung, spleen, pancreas, bone marrow, duodenum, jejunum, and colon, were collected in duplicate (approximately 50±20 mg each) and placed into two separate reinforced homogenization tubes per organ (one tissue sample per tube). The exact weight (in milligrams) of each sample was recorded. Tissues samples were flash frozen in liquid nitrogen and stored at −60 to −90° C. until shipment on dry ice for analysis by LC-MS/MS.
Mobile phase A consisted of 50 mM ammonium bicarbonate buffer in HPLC grade water pH 9.8 and mobile phase B consisted of pure acetonitrile. […] Mass spectrometry analysis was performed on a QTrap 7500 Mass Spectrometer (Sciex, Framingham, MA, USA) using negative mode electrospray ionization (ESI) in multiple reaction monitoring (MRM) mode. Data analysis was performed using SCIEX OS Software (Sciex, Framingham, MA, USA).
Tissue samples were collected at 3, 12, and 24 hours post-dose for the oral dose and 2 and 12 hour post-dose for the intravenous dose.

[1] = kidney, single intravenous bolus of Formula I 25 mg/kg, 12 hpd, read-out: Tissue concentration, kidney
[2] = kidney, single oral dose of Formula I 125 mg/kg, 3 hpd, read-out: Tissue concentration, kidney
[3] = kidney, single oral dose of Formula I 125 mg/kg, 12 hpd, read-out: Tissue concentration, kidney
[4] = kidney, single oral dose of Formula I 125 mg/kg, 24 hpd, read-out: Tissue concentration, kidney
[5] = liver, single intravenous bolus of Formula I 25 mg/kg, 2 hpd, read-out: Tissue concentration, liver
[6] = liver, single intravenous bolus of Formula I 25 mg/kg, 12 hpd, read-out: Tissue concentration, liver
[7] = liver, single oral dose of Formula I 125 mg/kg, 12 hpd, read-out: Tissue concentration in Göttingen pig liver (Table 7)
[8] = liver, single oral dose of Formula I 125 mg/kg, 12 hpd, read-out: Tissue concentration, liver
[9] = liver, single oral dose of Formula I 125 mg/kg, 24 hpd, read-out: Tissue concentration in Göttingen pig liver (Table 7)
[10] = liver, single oral dose of Formula I 125 mg/kg, 24 hpd, read-out: Tissue concentration, liver
[11] = lung, single intravenous bolus of Formula I 25 mg/kg, 2 hpd, read-out: Tissue concentration, lung
[12] = lung, single intravenous bolus of Formula I 25 mg/kg, 12 hpd, read-out: Tissue concentration, lung
[13] = lung, single oral dose of Formula I 125 mg/kg, 3 hpd, read-out: Tissue concentration, lung
[14] = lung, single oral dose of Formula I 125 mg/kg, 12 hpd, read-out: Tissue concentration, lung
[15] = spleen, single intravenous bolus of Formula I 25 mg/kg, 2 hpd, read-out: Tissue concentration, spleen
[16] = spleen, single intravenous bolus of Formula I 25 mg/kg, 12 hpd, read-out: Tissue concentration, spleen
[17] = spleen, single oral dose of Formula I 125 mg/kg, 3 hpd, read-out: Tissue concentration, spleen
[18] = brain, single intravenous bolus of Formula I 25 mg/kg, 2 hpd
[19] = brain, single intravenous bolus of Formula I 25 mg/kg, 12 hpd
[20] = brain, single oral dose of Formula I 125 mg/kg, 3 hpd
[21] = brain, single oral dose of Formula I 125 mg/kg, 12 hpd
[22] = brain, single oral dose of Formula I 125 mg/kg, 24 hpd
[23] = heart, single intravenous bolus of Formula I 25 mg/kg, 12 hpd
[24] = heart, single oral dose of Formula I 125 mg/kg, 3 hpd
[25] = heart, single oral dose of Formula I 125 mg/kg, 24 hpd
[26] = kidney, single intravenous bolus of Formula I 25 mg/kg, 2 hpd
[27] = kidney, single oral dose of Formula I 125 mg/kg, 3 hpd
[28] = liver, single oral dose of Formula I 125 mg/kg, 3 hpd
[29] = liver, single oral dose of Formula I 125 mg/kg, 24 hpd
[30] = spleen, single oral dose of Formula I 125 mg/kg, 3 hpd

With `C[C@H](NP(=O)(O)OC[C@H]1O[C@@H](n2ccc(=O)[nH]c2=S)C(C)(O)C1O)C(=O)O` (stereo in doubt) [Formula II] the “Exposure in the lung and spleen, fold lower than liver and kidneys” value was “about 10 fold”, the concentration at 2 h (brain, single intravenous bolus of Formula I 25 mg/kg, 2 hpd, read-out: Tissue concentration, brain) was 4.9 ± 9.8 ng/g and the concentration at 3 h (brain, single oral dose of Formula I 125 mg/kg, 3 hpd, read-out: Tissue concentration, brain) was 27 ± 23.4 ng/g. It also gave a concentration at 2 h (heart, single intravenous bolus of Formula I 25 mg/kg, 2 hpd, read-out: Tissue concentration, heart) of 292 ± 139 ng/g, a concentration at 12 h (heart, single intravenous bolus of Formula I 25 mg/kg, 12 hpd, read-out: Tissue concentration, heart) of 7.85 ± 9.5 ng/g and a concentration at 3 h (heart, single oral dose of Formula I 125 mg/kg, 3 hpd, read-out: Tissue concentration, heart) of 780 ± 375 ng/g. The concentration at 12 h (heart, single oral dose of Formula I 125 mg/kg, 12 hpd, read-out: Tissue concentration, heart) was 3.33 ± 6.65 ng/g, the concentration at 2 h (kidney, single intravenous bolus of Formula I 25 mg/kg, 2 hpd, read-out: Tissue concentration, kidney) was 6920 ± 3290 ng/g and the concentration at 12 h [1] was 39.3 ± 32.1 ng/g. It also gave a concentration at 3 h [2] of 10300 ± 2300 ng/g, a concentration at 12 h [3] of 180 ± 172 ng/g and a concentration at 24 h [4] of 30 ± 12.8 ng/g. It also gave a concentration at 2 h [5] of 694 ± 385 ng/g, a concentration at 12 h [6] of 17.9 ± 16.4 ng/g and a concentration at 3 h (liver, single oral dose of Formula I 125 mg/kg, 3 hpd, read-out: Tissue concentration in Göttingen pig liver (Table 7)) of 29200 ± 12200 nM. For the same compound, the concentration at 3 h (liver, single oral dose of Formula I 125 mg/kg, 3 hpd, read-out: Tissue concentration, liver) was 12400 ± 5150 ng/g, the concentration at 12 h [7] was 475 ± 727 nM and the concentration at 12 h [8] was 202 ± 309 ng/g. It also gave a concentration at 24 h [9] of 107 ± 60.6 nM, a concentration at 24 h [10] of 45.6 ± 25.8 ng/g and a concentration at 2 h [11] of 786 ± 134 ng/g. It also gave a concentration at 12 h [12] of 31.8 ± 5.52 ng/g, a concentration at 3 h [13] of 1630 ± 667 ng/g and a concentration at 12 h [14] of 16.5 ± 12.8 ng/g. It also gave a concentration at 24 h (lung, single oral dose of Formula I 125 mg/kg, 24 hpd, read-out: Tissue concentration, lung) of 2.25 ± 4.51 ng/g, a concentration at 2 h [15] of 530 ± 284 ng/g and a concentration at 12 h [16] of 24.8 ± 7.34 ng/g. For the same compound, the concentration at 3 h [17] was 1390 ± 301 ng/g, the concentration at 12 h (spleen, single oral dose of Formula I 125 mg/kg, 12 hpd, read-out: Tissue concentration, spleen) was 11.9 ± 9.24 ng/g and the concentration at 24 h (spleen, single oral dose of Formula I 125 mg/kg, 24 hpd, read-out: Tissue concentration, spleen) was 2.27 ± 4.53 ng/g. The “Tissue concentration, brain” value [18] was 4.90 ± 9.80 ng/g, the “Tissue concentration, brain” value [19] was “not observable and BQL” and the “Tissue concentration, brain” value [20] was 27.0 ± 23.4 ng/g. The “Tissue concentration, brain” value [21] was “BQL”, the “Tissue concentration, brain” value [22] was “BQL” and the “Tissue concentration, heart” value [23] was 7.85 ± 9.50 ng/g. For the same compound, the “Tissue concentration, heart” value [24] was 780 ± 375 ng/g, the “Tissue concentration, heart” value [25] was “BQL” and the “Tissue concentration, kidney” value [26] was 6920 ± 3290 ng/g. The “Tissue concentration, kidney” value (kidney, single intravenous bolus of Formula I 25 mg/kg, 12 hpd) was 39.3 ± 32.1 ng/g, the “Tissue concentration, kidney” value [27] was 10300 ± 2300 ng/g and the “Tissue concentration, liver” value [28] was 12400 ± 5150 ng/g. For the same compound, the “Tissue concentration, liver” value [29] was 45.6 ± 25.8 ng/g, the “Tissue concentration, lung” value (lung, single oral dose of Formula I 125 mg/kg, 3 hpd) was 1630 ± 667 ng/g and the “Tissue concentration, spleen” value [30] was 1390 ± 301 ng/g.

In the case of `CC1(O)[C@@H](O)[C@@H](COP(=O)(O)O)O[C@H]1n1ccc(=O)[nH]c1=S` (stereo partly drawn) [Formula III], the “Exposure in the lung and spleen, fold lower than liver and kidneys” value is reported as “about 10 fold”, the concentration at 24 h (125 mg/kg, liver and kidney, 24 hpd after oral dosing with Formula I, read-out: Concentration measurable in the liver and kidney) is reported as ~500 nM and the concentration at 12 h [1] is reported as 276 ± 78.1 ng/g. The concentration at 3 h [2] was 14100 ± 5050 ng/g, the concentration at 12 h [3] was 824 ± 432 ng/g and the concentration at 24 h [4] was 85.5 ± 18.1 ng/g. For the same compound, the concentration at 2 h [5] was 13100 ± 3070 ng/g, the concentration at 12 h [6] was 62.7 ± 77.7 ng/g and the concentration at 12 h [7] was 1640 ± 924 nM. For the same compound, the concentration at 12 h [8] was 582 ± 328 ng/g, the concentration at 24 h [9] was 537 ± 229 nM and the concentration at 24 h [10] was 190 ± 81 ng/g. The concentration at 2 h [11] was 2040 ± 883 ng/g, the concentration at 12 h [12] was 357 ± 207 ng/g and the concentration at 3 h [13] was 303 ± 94.4 ng/g. The concentration at 12 h [14] was 55.2 ± 64.6 ng/g, the concentration at 2 h [15] was 240 ± 28.3 ng/g and the concentration at 12 h [16] was 58.9 ± 14.7 ng/g. The concentration at 3 h [17] was 118 ± 10.8 ng/g, the “Tissue concentration, brain” value [18] was “BQL” and the “Tissue concentration, brain” value [19] was “BQL”. The “Tissue concentration, brain” value [20] was “BQL”, the “Tissue concentration, brain” value [21] was “BQL” and the “Tissue concentration, brain” value [22] was “BQL”. The “Tissue concentration, heart” value (heart, single intravenous bolus of Formula I 25 mg/kg, 2 hpd) was 89.9 ± 65.5 ng/g, the “Tissue concentration, heart” value [23] was “BQL” and the “Tissue concentration, heart” value [24] was 34.0 ± 39.9 ng/g. For the same compound, the “Tissue concentration, heart” value (heart, single oral dose of Formula I 125 mg/kg, 12 hpd) was “BQL”, the “Tissue concentration, heart” value [25] was “BQL” and the “Tissue concentration, kidney” value [26] was “above the limit of quantitation and AQL”. The “Tissue concentration, kidney” value [27] was 14100 ± 5050^ ng/g, the “Tissue concentration, kidney” value (kidney, single oral dose of Formula I 125 mg/kg, 24 hpd) was 85.5 ± 18.1 ng/g and the “Tissue concentration, liver” value (liver, single intravenous bolus of Formula I 25 mg/kg, 2 hpd) was 13100 ± 3070 ng/g. For the same compound, the “Tissue concentration in Göttingen pig liver (Table 7)” value [28] was “AQL”, the “Tissue concentration, liver” value [28] was “above the limit of quantitation and AQL” and the “Tissue concentration, liver” value [29] was 190 ± 81.0 ng/g. For the same compound, the “Tissue concentration, lung” value (lung, single intravenous bolus of Formula I 25 mg/kg, 12 hpd) was 357 ± 207 ng/g, the “Tissue concentration, lung” value (lung, single oral dose of Formula I 125 mg/kg, 24 hpd) was “BQL” and the “Tissue concentration, spleen” value (spleen, single intravenous bolus of Formula I 25 mg/kg, 12 hpd) was 58.9 ± 14.7 ng/g. The “Tissue concentration, spleen” value [30] was 118 ± 10.8 ng/g, the “Tissue concentration, spleen” value (spleen, single oral dose of Formula I 125 mg/kg, 12 hpd) was “BQL” and the “Tissue concentration, spleen” value (spleen, single oral dose of Formula I 125 mg/kg, 24 hpd) was “BQL”.

Reference: US20240390408A1, “METHOD OF TREATING HEPATITIS C VIRUS IN PATIENTS” (Altesa BioSciences, Inc., priority 2023, published 2024)
